Assay results taken from patent US8653071B2, “α4β2 neuronal nicotinic acetylcholine receptor ligands” (Suven Life Sciences Limited, priority 2009, dated 2014).

Tests used:
in vivo = settings: male, Wistar, rat, po, 5 mg/kg
Method: Rodent Brain Penetration Study
Three animals were housed in each cage. Animals were given water and food ad libitum throughout the experiment, and maintained on a 12 hours light/dark cycle.
NCE compound was dissolved in water and administered orally. At Tmax (0.5, 1.0 and 2.0) animals were sacrificed to collect the plasma and brain tissue and were homogenized. Plasma and Brain was stored frozen at −20° C. until analysis. The concentrations of the NCE compound in plasma and Brain were determined using LC-MS/MS method.
The NCE compounds were quantified in plasma and brain homogenate by validated LC-MS/MS method using solid phase extraction technique. NCE compounds were quantified in the calibration range of 1-500 ng/mL in plasma and brain homogenate. Study samples were analyzed using calibration samples in the batch and quality control samples spread across the batch. Extents of brain-blood ratio were calculated (Cb/Cp).

[1] = Rodent pharmacokinetic study; assay type: in vivo; settings: Wistar, in vivo, Wister rat/Male; for AUC(0-t) / Cmax / Tmax / half-life: 5 mg/kg
Method: Rodent Pharmacokinetic Study
Three to five animals were housed in each cage. Animals were kept fasted over night and maintained on a 12 hours light/dark cycle. Three rats were dosed NCE orally (15 or 5 mg/kg) and intravenously (5 mg/kg) on day 0 and day 2
At each time point blood was collected by jugular vein. Plasma was stored frozen at −20° C. until analysis. The concentrations of the NCE compound in plasma were determined using LC-MS/MS method. Schedule time points: Pre dose 0.25, 0.5, 1, 1.5, 2, 3, 4, 6, 8, 10, 12 and 24 hours after dosing (n=3).
Pharmacokinetic parameters Cmax, Tmax, AUCt, T1/2 and Bioavailability were calculated by non-compartmental model using software WinNonlin version 5.0.1.

Male Sprague Dawley rats = test: DRL-72s model of animal depression; assay type: in vivo; settings: p.o.; rat
Method: The antidepressant properties of compounds of this invention were evaluated using a model of animal depression: the DRL-72s model. Male Sprague Dawley rats were used as experimental animals. Rats are trained to lever press for a 4″ access to 0.025 ml of water for each correct response during daily 60 minute sessions. All testing takes place on weekdays only. At the beginning of each session, the house light is illuminated and remains lit until the session ends. No other stimuli are presented during testing. After successful lever press training, rats are then required to respond under a DRL-24 second schedule, where only lever presses that are separated by 24 seconds are reinforced. Upon stable responding on a DRL-24 second schedule (5-10 sessions), rats are trained on a DRL-72 second schedule until responding stabilizes at approximately 15% efficiency (approx 25-35 sessions). Specifically, rats receive a reinforcer for each response that is emitted at least 72 seconds after the previous response (IRT). […] Efficiency is recorded as number of reinforced responses÷total number of responses. After stable baseline responding is achieved, defined as responding for 4 consecutive sessions with no more than 10% variability, animals begin drug testing. Animals receive drug no more than 1× per week.

Male Wister rats [2] = test: Reversal of formalin induced nociception; assay type: in vivo; settings: p.o.; rat
Method: Reversal of Formalin Induced Nociception
The anti-nociceptive properties of compounds of this invention were evaluated using a model of pain: the Formalin Induced Nociception model. Male Wister rats (230-280 grams) obtained from N. I. N. (National Institute of Nutrition, Hyderabad, India) was used as experimental animals.
Rats were habituated for 20 minutes in the arena before the experiment was started. Duration of licks, bites and flinches were noted from 0-10 minutes and 20-35 minutes after administration of formalin, subplantar into the right hind paw at concentrations of 5% v/v. 50 μL of water for injection was injected into the right hind paw of the rats of the sham group. Compounds of this invention were administered orally prior to formalin administration.

[3] = biological target: Nicotinic Acetylcholine α4β2 Receptor (UniProt P09483+P12390); test: Binding assay for human or rat nicotinic acetylcholine α4β2 receptor ([3H]Cytisine displacement); settings: [3H]Cytisine 2.5 nM; rat brain frontal cortex or recombinant human receptor in CHO cells (not specified which); read-out: Ki
Method: Binding Assay for Human or Rat Nicotinic Acetylcholine α4β2 Receptor
• Receptor source: Rat brain frontal cortex or recombinant human cDNA expressed in CHO cells • Radioligand: [^3H]Cytisine 15-40 Ci/mmole • Final ligand concentration—[2.5 nM] • Non-specific determinant: Epibatidine—[0.1 μM] • Reference compound: Epibatidine • Positive control: Epibatidine Incubation Conditions:
Increasing concentrations of test compounds or standard were incubated with membrane receptors and radioligand in 120 mM NaCl, 2.5 mM KCl, 1 mM CaCl2, 1 mM MgCl2 and 50 mM TRIS-HCl (pH 7.4) for 60 minutes at room temperature. The reaction was terminated by rapid vacuum filtration onto the glass fiber filters. Radioactivity trapped onto the filters was determined and compared to the control values in order to ascertain any interactions of the test compound(s) with either cloned human or rat receptor binding site.
Literature Reference: Bunnelle W. H., Daanen J. F., Ryther K. B., Schrimpf M. R., Dart M. J., Gelain A., Meyer M. D., Frost J. M., Anderson D. J., Buckley M., Curzon P., Cao Y-J., Puttfarcken P., Searle X., Ji J., Putman C. B., Surowy C., Toma L. and Barlocco D. Structure-Activity Studies and Analgesic Efficacy of N-(3-Pyridinyl)-Bridged Bicyclic Diamines, Exceptionally Potent Agonists at Nicotinic Acetylcholine Receptors. J. Med. Chem. 2007, 50, […].

Male Wister rats [4] = test: Object recognition task model; assay type: in vivo, rat; settings: 0.1 mg/kg, p.o.
Method: Object Recognition Task Model
The cognition-enhancing properties of compounds of this invention were estimated using a model of animal cognition: the object recognition task model.
Male Wister rats (230-280 grams) obtained from N. I. N. (National Institute of Nutrition, Hyderabad, India) was used as experimental animals. Four animals were housed in each cage. […] Also the rats were habituated to individual arenas for 1 hour in the absence of any objects.
One group of 12 rats received vehicle (1 mL/Kg) orally and another set of animals received compound of the formula (I) either orally or i.p., before one hour of the familiar (T1) and choice trial (T2).
The experiment was carried out in a 50×50×50 cm open field made up of acrylic. In the familiarization phase, (T1), the rats were placed individually in the open field for 3 minutes, in which two identical objects (plastic bottles, 12.5 cm height×5.5 cm diameter) covered in yellow masking tape alone (a1 and a2) were positioned in two adjacent corners, 10 cm. from the walls. After 24 hours of the (T1) trial for long-term memory test, the same rats were placed in the same arena as they were placed in T1 trial. Choice phase (T2) rats were allowed to explore the open field for 3 minutes in presence of one familiar object (a3) and one novel object (b) (Amber color glass bottle, 12 cm high and 5 cm in diameter). Familiar objects presented similar textures, colors and sizes. During the T1 and T2 trial, explorations of each object (defined as sniffing, licking, chewing or having moving vibrissae whilst directing the nose towards the object at a distance of less than 1 cm) were recorded separately by stopwatch. Sitting on an object was not regarded as exploratory activity, however, it was rarely observed.
T1 is the total time spent exploring the familiar objects (a1+a2).
T2 is the total time spent exploring the familiar object and novel object (a3+b).
The object recognition test was performed as described by Ennaceur, A., Delacour, J., 1988, A new one-trial test for neurobiological studies of memory in rats—Behavioural data, Behav. Brain Res., 31, 47-59.

For NCC1CC2CC2N1c1cncc(Cl)c1.O=C(O)/C=C/C(=O)O (stereo not shown) [Example 13, [2-(5-Chloropyridin-3-yl)-2-aza-bicyclo[3.1.0]hex-3-yl]methylamine fumarate], the Kp (in vivo) was 10.8 ± 1.29, the bioavailability ([1]; 5 mg/kg Per-Oral vs 5 mg/kg Intravenous) was 89 ± 18% and the AUC(0-t) ([1]; Intravenous) was 1.76 ± 0.228 µg·h/mL. The Cmax ([1]; Intravenous) was 0.836 ± 0.239 µg/mL, the Tmax ([1]; Intravenous) was 4.8 min and the half-life ([1]; Intravenous) was 85.8 ± 6.6 min. For the same compound, the AUC(0-t) ([1]; Per-Oral) was 1.54 ± 0.165 µg·h/mL, the Cmax ([1]; Per-Oral) was 0.753 ± 0.277 µg/mL and the Tmax ([1]; Per-Oral) was 22.8 ± 8.4 min. For the same compound, the half-life ([1]; Per-Oral) was 105 ± 24 min, the “Dose (DRL-72s)” value (Male Sprague Dawley rats) was “≧10 mg/kg, p.o” and the “Dose (reversal of formalin induced nociception)” value (Male Wister rats [2]) was “≧30 mg/kg, p.o”. For the same compound, the Ki [3] was 3.5 nM, the Inference (Male Wister rats [4]) was “Active” and the “Exploration time mean ± S.E.M, Familiar object” value (Male Wister rats [4]; choice trial) was 7.32 ± 1.04 s. The “Exploration time mean ± S.E.M, Novel object” value (Male Wister rats [4]; choice trial) was 22.77 ± 2.12 s.
